# Tests used:
# Type in all cases: cell-based
# [1] = system: bacteria grown from soil sample extract; assay: Anti-microbial agent screening: soil-extract broth cultures treated with agent, then sub-cultured; conditions: confirmation on TSA plates
# Experimental: In anti-microbial agent screening studies, a soil sample was extracted with a 0.9% saline solution of sodium chloride (NaCl) and water (H2O) and a sample loop was used to transfer approximately 10 μL of extract to a test tube containing sterile Tryptic Soy Broth (TSB). […] The broth samples were then treated with anti-microbial agents at a known concentration. The treated broth samples were then sub-cultured in another sterile TSB, minimal media (MM) or spread on sterile Tryptic Soy Agar (TSA) plates. MM is a nutrient deficient growth medium where citric acid is the only carbon source and which is selective against many species of bacteria. Bacterial growth was confirmed by visible inspection of the secondary TSB, MM or TSA plate. The broth/plate samples were then evaluated for how long they remained free of bacterial growth. […] The column labeled Bacterial Confirmatory Analysis provides the subculture media used to confirm bacterial growth.
# bacteria of soil sample = assay: Culturing study: soil sample directly treated with anti-microbial agent, extract inoculated into sterile TSB; conditions: concentration not given
# Experimental: Additional culturing studies were carried out where a soil sample was directly treated with an anti-microbial agent. The exposure time of the soil sample to the anti-microbial was either 60 seconds or 24 hours. The extract was then sampled and used to inoculate a sterile TSB. The amount of time for bacterial growth to become visible was then noted.
# [2] = system: bacteria from saline extract of a soil sample; assay: Growth curve by UV-Vis absorbance at 600 nm of TSB inoculated with saline soil extract; conditions: TSB treated with 1.8% triclosan in 0.1 M NaOH or with bleach; room temperature, up to 80 days
# Experimental: FIG. 1 describes a growth curve constructed using UV-vis analysis of cultures taken from soil exposed to water, 0.1 M sodium hydroxide (NaOH), 1.81% triclosan and bleach.
# A final culturing study was conducted where a set of culture tubes containing sterile TSB were inoculated with a saline extract of a soil sample. One set of culture tubes contained only sterile TSB, a second set contained sterile TSB treated with 0.1 M NaOH, a third set contained sterile TSB treated with 1.8% triclosan in 0.1 M NaOH and a fourth set contained sterile TSB treated with bleach. The culture tubes were allowed to stand at room temperature for periods of up to 80 days. Growth was then monitored three times daily for up to 4 days by a single beam diode array UV-Vis Spectrophotometer in the 400 nm to 800 nm range. The absorbance of the samples at 600 nm was monitored over the course of the study.
compound,measurement,setting,value
"CC(C)(C)CC(C)(C)c1ccc(OCCOCC[N+](C)(C)Cc2ccccc2)cc1 [Benzethonium chloride in water, Benzethonium chloride]",Effective Period (time sub-culture remained free of bacterial growth),[1]; agent at 1%,0 days
"[H]/N=C(\N/C(=N/[H])NCCCCCCNC(=N)NC(=N)Nc1ccc(Cl)cc1)Nc1ccc(Cl)cc1 [Chlorhexidine in water, Chlorhexidine]",Effective Period (time sub-culture remained free of bacterial growth),[1]; agent at 14%,0 days
same,"Effective period (time for bacterial growth to become visible, cloudy)",bacteria of soil sample; soil exposure time 60 s,Cloudy after 8 days
same,"Effective period (time for bacterial growth to become visible, cloudy)",bacteria of soil sample; soil exposure time 24 hrs,Still clean after 36 days
"O=S(=O)([O-])[O-].[Cu+2] [Copper Sulfate in water, Copper Sulfate]",Effective Period (time sub-culture remained free of bacterial growth),[1]; agent at 5%,0 days
"Oc1cc(Cl)ccc1Oc1ccc(Cl)cc1Cl [triclosan, 2,4,4′-trichloro-2′-hydroxydiphenyl ether]",Bacterial growth by sample absorbance at 600 nm (FIG. 1),[2],prevent bacterial growth
Benzalkonium chloride [Benzalkonium chloride in water],Effective Period (time sub-culture remained free of bacterial growth),[1]; agent at 1%,0 days
